# Laboratory results published in patent publication US9440941B2, “Substituted chroman-6-yloxy-cycloalkanes and their use as pharmaceuticals” (SANOFI, priority 2013, dated 2016).
# Structures can show the parent of a compound that is named as a salt.
# Biological target: T1, human NCX1 (Homo sapiens, UniProt P32418)
# T1 construct: expressed in transfected cells
# Assay: Inhibition of Ca2+ influx into cells (NCX1 reverse mode), FLIPR Fluo-4 assay
# Assay type: cell-based
# Details: at 10 μM; NCX1 reverse mode; IC50 value not determined; read-out: Inhibition in % at 10 μM (NCX1rv)
# Outline: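 CHO cells stably expressing human NCX1, loaded with Fluo-4 AM, preincubated with compound 45 min at 16 °C in pH 7.4 buffer (3.5 mM CaCl2). Reverse mode triggered by 20 µM gramicidin (final); Fluo-4 fluorescence read at 520 nm every 2 s. IC50 from percentage inhibition of max-minus-min fluorescence.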
row,inhibition at 10 µM,Molecule
1,96%,CCC(COC)NC1CCC(Oc2ccc3c(c2)CCC(c2ccccc2C)O3)CC1 (stereo not drawn) [compound 195]
2,71%,Cc1ccccc1C1CCc2cc(OC3CCC(NCCCOC4CCCC4)CC3)ccc2O1 (stereo not drawn) [compound 199]

# Same assay, conditions: at 10 μM; NCX1 reverse mode; IC50 value not determined; read-out: NCX1rv inhibition in % at 10 μM
row,inhibition at 10 µM,Molecule
1,100%,COCCNC1CCC(Oc2ccc3c(c2)CCC(c2ccccc2C)O3)CC1 (stereo not drawn) [compound 189]
2,98%,CSCCNC1CCC(Oc2ccc3c(c2)CCC(c2ccccc2C)O3)CC1 (stereo not drawn) [compound 192]

# Same assay, conditions: inhibition of NCX1 in reverse mode (Ca2+ influx into cells); read-out: NCX1rv IC50
row,IC50,Molecule
1,0.6 µM,CCn1nccc1CNC(=O)C1CCC(Oc2ccc3c(c2)CCC(c2cccc(F)c2C)O3)CC1 (stereo not drawn) [compound 283]
2,1.9 µM,CC1Cc2cc(OC3CCC(C(=O)NCCO)CC3)ccc2OC1c1ccccc1 (stereo not drawn) [compound 299]
3,1.7 µM,Fc1ccccc1C1CCc2cc(OC3CCC(NCC4CCCO4)CC3)ccc2O1 (stereo not drawn) [compound 216]
4,1.1 µM,O=C(NCCO)C1CCC(Oc2ccc3c(c2Cl)CCC(c2ccccc2)O3)CC1 (stereo not drawn) [compound 291]
5,1.9 µM,Cc1ccccc1C1CCc2cc(OC3CCC(NC4CCCC4)CC3)ccc2O1 (stereo not drawn) [compound 204]
6,4.1 µM,Fc1ccccc1C1CCc2cc(OC3CCC(NC4CCOCC4)CC3)ccc2O1 (stereo not drawn) [compound 231]
7,0.4 µM,Cc1ccccc1C1CCc2cc(O[C@H]3CC[C@@H](C(=O)Nc4ccccn4)CC3)ccc2O1 (relative stereo) [compound 265]
8,0.04 µM,CSCC(=O)N[C@H]1CC[C@H](Oc2ccc3c(c2)CCC(c2ccccc2F)O3)CC1 (relative stereo) [compound 241]
9,0.9 µM,CCn1nccc1CNC(=O)C1CCC(Oc2ccc3c(c2)CCC(c2cccc(OC)c2F)O3)CC1 (stereo not drawn) [compound 296]
10,0.7 µM,"Cc1c(F)cccc1C1CCc2cc(OC3CCC(C(=O)NC4CCCC4O)CC3)ccc2O1 (single isomer, unassigned; stereoisomer 1) [compound 279, 4-[2-(3-Fluoro-2-methyl-phenyl)chroman-6-yloxy]-N-(2-hydroxycyclopentyl)cyclohexane-carboxamide, stereoisomer 1 (2)]"
11,0.6 µM,Cc1c(F)cccc1C1CCc2cc(OC3CCC(C(=O)NCC(=O)N(C)C)CC3)ccc2O1 (stereo not drawn) [compound 273]
12,0.2 µM,Cc1ccnn1CCC(=O)N[C@H]1CC[C@H](Oc2ccc3c(c2)CCC(c2ccccc2F)O3)CC1 (relative stereo) [compound 257]
13,1.6 µM,COCCNC1CCC(Oc2ccc3c(c2)CCC(c2ccccc2F)O3)CC1 (stereo not drawn) [compound 214]
14,4.3 µM,Fc1ccccc1C1CCc2cc(OC3CCC(NCCN4CCSCC4)CC3)ccc2O1 (stereo not drawn) [compound 227]
15,3.1 µM,CCOCCCNC1CCC(Oc2ccc3c(c2)CCC(c2ccccc2F)O3)CC1 (stereo not drawn) [compound 223]
16,0.8 µM,Cc1ccccc1C1CCc2cc(O[C@H]3CC[C@H](NCC(=O)O)CC3)ccc2O1 (relative stereo) [compound 271]
17,1.1 µM,Cc1ccccc1C1CCc2cc(OC3CCC(NC4CCS(=O)(=O)C4)CC3)ccc2O1 (stereo not drawn) [compound 206]
18,3 µM,Cc1ccccc1C1CCc2cc(OC3CCC(NCC4CCOCC4)CC3)ccc2O1 (stereo not drawn) [compound 208]
19,0.1 µM,O=C(N[C@H]1CC[C@H](Oc2ccc3c(c2)CCC(c2ccccc2F)O3)CC1)c1ccncc1F (relative stereo) [compound 246]
20,4.7 µM,CCn1nccc1CNC(=O)C1CCC(Oc2ccc3c(c2Cl)CCC(c2ccccc2)O3)CC1 (stereo not drawn) [compound 293]
21,0.1 µM,O=C(Cn1cncn1)N[C@H]1CC[C@H](Oc2ccc3c(c2)CCC(c2ccccc2F)O3)CC1 (relative stereo) [compound 256]
22,0.8 µM,Cc1ccn(CC(=O)N[C@H]2CC[C@H](Oc3ccc4c(c3)CCC(c3ccccc3F)O4)CC2)n1 (relative stereo) [compound 250]

# More lines, now with the values behind:
row,Molecule,IC50
1,"CC(=O)OC1CCC(Oc2ccc3c(c2)CCC(c2ccccc2)O3)CC1 (stereo not drawn) [compound 78, [4-(2-Phenylchroman-6-yloxy)cyclohexyl] acetate]",0.6 µM
2,O=C(NCc1ccno1)C1CCC(Oc2ccc3c(c2)CCC(c2ccccc2F)O3)CC1 (stereo not drawn) [compound 174],0.6 µM
3,O=C(CCn1cccn1)N[C@H]1CC[C@H](Oc2ccc3c(c2)CCC(c2ccccc2)O3)CC1 (relative stereo) [compound 39],0.3 µM
4,"NC1(Cc2ccccc2)CCC(Oc2ccc3c(c2)CCC(c2ccccc2)O3)CC1 (single isomer, unassigned) [compound 46, 1-Benzyl-4-(2-phenylchroman-6-yloxy)-cyclohexylamine, stereoisomeric mixture 2]",11 µM
5,O=C(N[C@H]1CC[C@H](Oc2ccc3c(c2)CCC(c2ccccc2)O3)CC1)C1CCC1 (relative stereo) [compound 20],0.2 µM
6,CCC(C)(O)C(=O)N[C@H]1CC[C@H](Oc2ccc3c(c2)CCC(c2ccccc2)O3)CC1 (relative stereo) [compound 44],0.3 µM
7,c1ccc(C2CCc3cc(O[C@H]4CC[C@H](NCC5CCOC5)CC4)ccc3O2)cc1 (relative stereo) [compound 61],0.3 µM
8,"NC1(Cc2ccccc2)CCC(Oc2ccc3c(c2)CCC(c2ccccc2)O3)CC1 (single isomer, unassigned) [compound 45, 1-Benzyl-4-(2-phenylchroman-6-yloxy)-cyclohexylamine, stereoisomeric mixture 1]",22 µM
9,CCC(C)CNC1CCC(Oc2ccc3c(c2)CCC(c2ccccc2)O3)CC1 (stereo not drawn) [compound 101],0.9 µM
10,O=C(N[C@H]1CC[C@H](Oc2ccc3c(c2)CCC(c2ccccc2)O3)CC1)C1CC1(F)F (relative stereo) [compound 32],0.1 µM
11,CCCC1(NC2CCC(Oc3ccc4c(c3)CCC(c3ccccc3)O4)CC2)CC1 (stereo not drawn) [compound 124],2.4 µM
12,FC(F)(F)CCN[C@H]1CC[C@H](Oc2ccc3c(c2)CCC(c2ccccc2)O3)CC1 (relative stereo) [compound 54],0.6 µM
13,c1ccc(C2CCc3cc(OC4CCC(NCC5CCCO5)CC4)ccc3O2)cc1 (stereo not drawn) [compound 129],0.7 µM
14,"Cc1cc(CN(Cc2cc(C)n(C)n2)[C@H]2CC[C@H](Oc3ccc4c(c3)CCC(c3ccccc3)O4)CC2)nn1C (stereo partly drawn) [compound 87, N,N-Bis(1,5-dimethylpyrazol-3-ylmethyl)-[trans-4-(2-phenylchroman-6-yloxy)]-cyclohexylamine]",1.3 µM
15,"O=C1CCC(Oc2ccc3c(c2)CCC(c2ccccc2)O3)CC1 (stereo not drawn) [compound 77, 4-(2-Phenylchroman-6-yloxy)cyclohexanone]",0.4 µM
16,CO[C@H](C)C(=O)N[C@H]1CC[C@H](Oc2ccc3c(c2)CCC(c2ccccc2)O3)CC1 (stereo partly drawn) [compound 23],0.3 µM
17,"CCn1nccc1CNC(=O)C1CCC(Oc2ccc3c(c2)CCC(c2ccccc2)O3)CC1 (single isomer, unassigned; stereoisomer 2) [compound 94, N-(2-Ethyl-2H-pyrazol-3-ylmethyl)-[cis-4-(2-phenylchroman-6-yloxy)]-cyclohexanecarboxamide, stereoisomer 2 (2)]",1.6 µM

row,Molecule,IC50
1,"CC(C)CN[C@H]1CC[C@H](Oc2ccc3c(c2)CCC(c2ccccc2)O3)CC1 (stereo partly drawn) [compound 65, N-Isobutyl-[trans-4-(2-phenylchroman-6-yloxy)]-cyclohexylamine]",0.4 µM
2,CC(C)N1CCC(CNC2CCC(Oc3ccc4c(c3)CCC(c3ccccc3)O4)CC2)CC1 (stereo not drawn) [compound 118],2.1 µM
3,Cc1nn(C)c(C)c1CNC1CCC(Oc2ccc3c(c2)CCC(c2ccccc2)O3)CC1 (stereo not drawn) [compound 104],0.8 µM
4,CCCNC1CCC(Oc2ccc3c(c2)CCC(c2ccccc2)O3)CC1 (stereo not drawn) [compound 113],0.5 µM
5,O=C(CCn1cncn1)N[C@H]1CC[C@H](Oc2ccc3c(c2)CCC(c2ccccc2)O3)CC1 (relative stereo) [compound 38],0.4 µM
6,"c1ccc(C2CCc3cc(O[C@H]4CC[C@H](N(Cc5cncs5)Cc5cncs5)CC4)ccc3O2)cc1 (stereo partly drawn) [compound 83, [trans-4-(2-Phenylchroman-6-yloxy)]-N,N-bis(thiazol-5-ylmethyl)cyclohexylamine]",1.4 µM
7,c1ccc(C2CCc3cc(OC4CCC(NC5CCCCC5)CC4)ccc3O2)cc1 (stereo not drawn) [compound 105],1.1 µM
8,"Cc1cc(CN[C@H]2CC[C@H](Oc3ccc4c(c3)CCC(c3ccccc3)O4)CC2)nn1C (stereo partly drawn) [compound 56, N-(1,5-Dimethylpyrazol-3-ylmethyl)-[trans-4-(2-phenylchroman-6-yloxy)]-cyclohexylamine]",0.5 µM
9,"CN[C@@H](C)C(=O)N[C@H]1CC[C@H](Oc2ccc3c(c2)CCC(c2ccccc2)O3)CC1 (stereo partly drawn) [compound 71, hydrochloride]",0.6 µM
10,c1ccc(C2CCc3cc(O[C@H]4CC[C@H](NCc5cncs5)CC4)ccc3O2)cc1 (relative stereo) [compound 47],0.4 µM
11,"c1ccc(C2CCc3cc(O[C@H]4CC[C@H](N(Cc5ccsc5)Cc5ccsc5)CC4)ccc3O2)cc1 (stereo partly drawn) [compound 79, [trans-4-(2-Phenylchroman-6-yloxy)]-N,N-bis(thiophen-3-ylmethyl)cyclohexylamine]",11 µM
12,"Cn1cc(Cl)c(CN[C@H]2CC[C@H](Oc3ccc4c(c3)CCC(c3ccccc3)O4)CC2)n1 (stereo partly drawn) [compound 62, N-(4-Chloro-1-methyl-pyrazol-3-ylmethyl)-[trans-4-(2-phenylchroman-6-yloxy)]-cyclohexylamine]",0.6 µM
13,"CCCC1(O)CCC(Oc2ccc3c(c2)CCC(c2ccccc2)O3)CC1 (stereo not drawn) [compound 90, 4-(2-Phenylchroman-6-yloxy)-1-propyl-cyclohexanol]",0.2 µM
14,COCCCNC1CCC(Oc2ccc3c(c2)CCC(c2ccccc2)O3)CC1 (stereo not drawn) [compound 121],0.7 µM
15,4-(2-Phenylchroman-6-yloxy)-N-(2-thiomorpholin-4-ylethyl)cyclohexylamine [compound 139],1 µM
16,"NCC(=O)NC1CCC(Oc2ccc3c(c2)CCC(c2ccccc2)O3)CC1 (stereo not drawn) [compound 12, hydrochloride]",0.2 µM
17,N-[1-(Methoxymethyl)propyl]-4-(2-phenylchroman-6-yloxy)-cyclohexylamine [compound 133],1 µM
